Laboratory results from US8163953B2, “Compounds for lysosomal modulation and methods of use” (University of Connecticut, priority 2008, dated 2012).
pEC50: −log10 of the molar value. Entries after “also recorded” stand apart in the source; their conditions may differ. Where two headings read alike, the source gives them in different places. Peptide text beside a SMILES is read from it. * marks the point of attachment. Cbz = O=C(OCc1ccccc1)*; CHN2 = [N-]=[N+]=C*

Experiments:
cathepsin = experiment: Cathepsin enhancement and synaptic marker recovery in a protein accumulation model; format: cell-based
Description: Increased lysosomal enzyme activities are an indicator of cellular responses aimed at compensating for accumulating material. Evidence of compensatory up-regulation of lysosomal enzymes in response to lysosome stress and protein accumulation has led to the identification of a pharmacological avenue for promoting such responses. This pharmacological avenue has been used to identify and synthesize the compounds described herein, which are effective as lysosomal modulators. The base structures of PADK and Z-Phe-Phe-diazomethylketone (PPDK) were used for the design of new lysosomal modulators because PADK and PPDK enhance cathepsin levels at 0.3-10 μM, resulting in 70-80% recovery of synaptic markers that were lost in a protein accumulation model. Other modulators, including diazoacetyl-DL-2-aminohexanoic acid methyl ester, require up to 30 μM to produce neuroprotective effects, but result in only 24-42% synaptic recovery.

cathepsin D = experiment: Cathepsin D up-regulation in hippocampal slice cultures (immunoblot); format: cell-based; conditions: for pEC50: increase of cathepsin D levels, slices treated daily for 3-6 days; for potency of increasing cathepsin D levels (in words) / EC2-fold (concentration needed for a 2-fold increase in cathepsin levels): hippocampal slice cultures; for potency of increasing cathepsin D levels (in words): treated daily 3-6 days
Description: The cultured slices were treated daily with different modulator concentrations for 3-6 days. […] BW1001 was not tested further due to its low potency.
The hippocampal slices were maintained in culture for 10-12 days to stabilize, then were treated daily with different modulator concentrations for 3 days. Then they were harvested rapidly in ice-cold buffer and homogenized in the presence of protease inhibitors.
Equal protein aliquots of the slice samples were subjected to immunoblotting to label the proform and the active form of cathepsin D (CD). FIG. 3A is an immunoblot showing PADK induced increases in the proform and active form of cathepsin D in hippocampal slice cultures. FIG. 3B is a graph showing the dose-dependent up-regulation of cathepsin D in hippocampal slice cultures by PADK and by BW1002.
Slices were treated daily for 3 days with 10 μM compound, then harvested rapidly for immunoblot assessment of active CD levels (ANOVA: P<0.0001). FIG. 5 is a bar graph showing the results of these tests. The data in FIG. 5 indicate that the non-peptide lysosomal modulators provide potent lysosomal modulation that enhances clearance of pathogenic accumulations. All data represent means±SEM.

[1] = tested on: hippocampal slice cultures; experiment: LDH assay on media of treated slice cultures; conditions: for LDH release: media samples from treated slice cultures
Description: (§4) Potential toxicity was tested by assessing synaptic markers and subjecting media samples from the treated slice cultures to a standard LDH assay.

[2] = tested on: pre- and postsynaptic markers; experiment: Synaptic marker assessment in treated slice cultures
Description: as §4

[3] = tested on: hippocampal slice cultures
Description: as §4

[4] = tested on: pre- and postsynaptic markers
Description: as §4

[5] = tested on: PDGF-APPSwInd transgenic mice; experiment: Synaptic protection in PDGF-APPSwInd transgenic mice (GluR1); format: in vivo; conditions: daily i.p.; BW1005 45 mg/kg, BW1002 25 mg/kg
Description: Modulator BW1005, was administered daily i.p. into an Alzheimer's Disease model —PDGF-APPSwInd transgenic mice. The transgenic mice are hemizygotes for a mutant form of the human APP gene containing both the Swedish (K670N/M671L) and the Indiana (V717F) mutations (APPSwInd). […] Based on its potency in relation to PADK's effect in slices and mice, BW1005 was injected i.p. daily at a dose of 45 mg/kg.
The brains of the mice were dissected and assessed for the postsynaptic marker GluR1. […] FIG. 7 is a bar graph showing the mean GluR1 measure ±SEM for each group studied (post hoc test: p=0.05). […] Changes in cathepsin levels may explain the synaptic protection.

[6] = Adverse-effect assessment of PADK dosing in 10 month old mice; format: in vivo
Description: (§1) The modulator PADK up-regulates cathepsins without causing adverse effects. Hippocampal homogenates were assessed for the mice. FIGS. 6A-D are graphs showing the effects of PADK doping on various biological and physical attributes of 10 month old mice.
(§2) FIG. 6D is a graph showing the results of motor skills and spatial memory tests. Motor skills and coordination were assessed using a variable-speed rotating rod and measuring the time the animal could remain moving on the rod. Spatial memory was tested with a conditions place preference (CPP) North-South paradigm in which the animal must remember where a previous reward was presented. Thus, the lysosomal modulation occurred in the absence of any evident effects on liver/kidney integrity, blood urea levels, or on normal brain functionality.

cathepsins B and D = conditions: in vivo; cited from earlier work
cathepsin B = experiment: In vivo lysosomal modulation by PADK in mice
Description: The enhanced cathepsin staining was evident in many brain regions and co-localized with the lysosomal marker LAMP-1.
as §1, §2

[7] = tested on: human paired helical filaments (PHFs); experiment: Chloroquine-induced hippocampal slice model of protein accumulation, PHF immunostaining; format: cell-based; conditions: 6 days chloroquine, then 3 μM for 2 days
Description: FIGS. 2A-C are immunostains of hippocampal slice cultures for human paired helical filaments (PHFs). The pathogenic PHF was undetectable in control tissue, FIG. 2A, whereas cellular accumulation of PHF was evident after 6 days of chloroquine treatment followed by 2 days of washout, FIG. 2B. […] Size bar: 16 μm.

APPswe/PS1ΔE9 mice = experiment: Spontaneous alternation behavior in a T-maze, APPswe/PS1ΔE9 mice; format: in vivo
Description: (§3) The improvement of synaptic integrity by PADK was also associated with the reduction of behavioral deficits in the mouse models. FIG. 9C is a bar graph showing rotorod performance for several groups of mice. […] FIG. 9D is a bar graph illustrating spontaneous alternation behavior in the second type of Alzheimer's mouse model (APPswe/PS1ΔE9). APPswe/PS1ΔE9 mice treated with vehicle or PADK were tested on the hippocampal-dependent task of spontaneous alternation behavior in a T-maze. The mice were allowed to explore starting from the intersection of a T-maze, and were monitored for the order of entries into the three arms (arms A, B, and C). In control mice, every third explored arm is usually different than the previous two (e.g., A-B-C, B-A-C, etc.; the third decision being an alternation). Alzheimer's mice, on the other hand, frequently go back into one of the previous two arms explored (e.g., A-B-A, C-B-B), thus reducing the percent alternations. […] Open field mobility assessment confirmed no change in exploratory mobility across the different groups of mice.

[8] = tested on: APPSwInd and APPswe/PS1ΔE9 mice; experiment: Synaptic markers in APPSwInd and APPswe/PS1ΔE9 mice treated with PADK; format: in vivo; conditions: two Alzheimer's mouse models, immunoblot of homogenates
Description: To compare the BW1002/1005 results to previous PADK work, homogenate samples were analyzed by immunoblot for the presynaptic protein synapsin II and postsynaptic glutamatergic marker GluR1.

APPSwInd mice = experiment: Rotarod performance of APPSwInd mice; format: in vivo; conditions: trials on the 8th and 9th injection days
Description: as §3

CCCCC(NC(=O)C=[N+]=[N-])C(=O)OC (racemic) [diazoacetyl-DL-2-aminohexanoic acid methyl ester]
concentration required to produce neuroprotective effects (cathepsin): up to 30 μM

O=C(NC(Cc1ccccc1)[C@H](O)CNCc1ccccc1)OCc1ccccc1 (stereo partly drawn) [BW1001, (2R,3S)-3-Cbz amino-2-hydroxy-4-phenyl-1-benzyl amino butane]
pEC50 (cathepsin D): 4.70

CC(=O)N(Cc1ccccc1)C[C@@H](O)C(Cc1ccccc1)NC(=O)OCc1ccccc1 (stereo partly drawn) [BW1002, (2R,3S)-3-Cbz amino-2-hydroxy-4-phenyl-1-(N-benzylacetamido) butane]
LDH release [1]: did not cause synaptic decline or LDH release
synaptic decline (pre- and postsynaptic markers) [2]: did not cause synaptic decline or LDH release
pEC50 (cathepsin D): 5.52

[N-]=[N+]=CC(=O)N(Cc1ccccc1)C[C@@H](O)[C@H](Cc1ccccc1)NC(=O)OCc1ccccc1 [BW1003, (2R,3S)-3-Cbz amino-2-hydroxy-4-phenyl-1-(N-benzyl-2-diazo-ethanamido) butane]
LDH release as % of maximal LDH release produced by total cellular disruption (1% TX-100) ([1]; after 6 days of treatment): < 2%
LDH release [1]: time-dependent increase in LDH activity
synaptic decline (pre- and postsynaptic markers) [2]: caused evident synaptic decline
pEC50 (cathepsin D): 5.70

CC(=O)N(Cc1cccc2ccccc12)C[C@@H](O)[C@H](Cc1ccccc1)NC(=O)OCc1ccccc1 [BW1004, (2R,3S)-3-Cbz amino-2-hydroxy-4-phenyl-1-(N-naphthylmethylethanamido) butane]
LDH release [3]: did not produce evident toxicity
potency of increasing cathepsin D levels (in words) (cathepsin D): potencies at or near that of PADK
pEC50 (cathepsin D): 4.70
synaptic decline (pre- and postsynaptic markers) [4]: did not produce evident toxicity

O=C(NC(Cc1ccccc1)[C@H](O)CN(Cc1ccccc1)C(=O)c1ccccc1)OCc1ccccc1 (stereo partly drawn) [BW1005, (2R,3S)-3-Cbz amino-2-hydroxy-4-phenyl-1-(N-benzylbenzamide) butane]
LDH release [1]: did not cause synaptic decline or LDH release
synaptic decline (pre- and postsynaptic markers) [2]: did not cause synaptic decline or LDH release
synaptic protection: postsynaptic marker GluR1 in brain [5]: significant synaptic protection; also recorded: greater than that provided by PADK
potency of increasing cathepsin D levels (in words) (cathepsin D): potencies at or near that of PADK
pEC50 (cathepsin D): 4.82

C[C@H](NC(=O)[C@H](Cc1ccccc1)NC(=O)OCc1ccccc1)C(=O)C=[N+]=[N-] [PADK, Z-Phe-Ala-diazomethylketone]
ALT (damage to liver function) [6]: no change in either ALT or BUN
BUN (kidney compromise) [6]: no change in either ALT or BUN
adverse effects on synaptic markers GluR1 and synaptophysin [6]: No adverse effects were evident
motor skills and coordination (variable-speed rotating rod) [6]: did not impair motor skills, coordination, or spatial memory
spatial memory (CPP North-South paradigm) [6]: did not impair motor skills, coordination, or spatial memory
LDH release [1]: did not cause synaptic decline or LDH release
synaptic decline (pre- and postsynaptic markers) [2]: did not cause synaptic decline or LDH release
rat brain levels of cathepsins B and D (cathepsins B and D): significant increases
immunostaining for the active form of cathepsin B in hippocampal cells (cathepsin B; 10-12-month old mice, 9 daily i.p. injections): dramatic increase in immunostaining
cathepsin levels in hippocampal homogenates (cathepsin B; 10 month old mice, across different dosages): dose-dependent increases in cathepsin levels
clearance of chloroquine-induced PHF deposits in CA1 neurons [7]: clearance of most neuronal deposits of PHF material
spontaneous alternations (APPswe/PS1ΔE9 mice): significantly improved alternations
GluR1 deficit [8]: significantly reduced the GluR1 deficit
Rotarod performance across trials (APPSwInd mice): enabled the APPSwInd mice to improve across Rotarod trials
EC2-fold (concentration needed for a 2-fold increase in cathepsin levels) (cathepsin D): 3.2 µM
pEC50 (cathepsin D; unit μm [sic]): 5.00
proform and active form of cathepsin D (cathepsin D; slices treated daily for 3 days, immunoblot): increased

[N-]=[N+]=CC(=O)[C@H](Cc1ccccc1)NC(=O)[C@H](Cc1ccccc1)NC(=O)OCc1ccccc1 [PPDK, Z-Phe-Phe-diazomethylketone] (Cbz-Phe-Phe-CHN2)
EC2-fold (concentration needed for a 2-fold increase in cathepsin levels) (cathepsin D): ~5 µM
pEC50 (cathepsin D; unit μm [sic]): 4.85
